Results taken from patent publication US20110251158A1, “FULLERENE THERAPIES FOR INFLAMMATION AND INHIBITION OF BUILD-UP OF ARTERIAL PLAQUE” (Luna Innovations Incorporated, priority 2008, published 2011).

Assays:
[1] = system: Peripheral blood basophils (PBB); experiment: Anti-IgE-induced histamine release (degranulation) from PBB; type: cell-based, human
Method: PBB were obtained from two sources: donors recruited under an IRB-approved protocol after informed consent or from leukopheresis packs obtained from the Johns Hopkins Hemapheresis Center. PBB were purified to ≧99% purity as described in Vonakis, B. M., Gibbons S Jr, Sora, R., Langdon, J. M., and MacDonald, S. M. J. Allergy Clin. Immunol. 108, 822-831 (2001), and Miura, K., Saini, S. S., Gauvreau, G., and MacGlashan, D. W., Jr. J. Immunol. 167, 2282-2291 (2001). Purified PBB were incubated overnight (20 hours) with a fullerene derivative (5 μg/ml) or vehicle control and a minimal (non-stimulatory) concentration of IL-3 (2 pg/ml) to prevent apoptosis. The next day, cells were washed and aliquoted for the histamine release assay by treatment with 0.1 mg/ml of goat polyclonal anti-IgE, buffer alone (spontaneous release) or perchloric acid (total histamine determination). Histamine was quantified in cell free supernatants using automated fluorimetry in duplicate. In a second set of experiments the two fullerene derivatives (at 5 μg/ml) were incubated with PBB for 20 hours, washed cells stimulated with 15 ng/ml anti-IgE for 18 hours in duplicate and supernatants collected for quantification of IL-13 by in-house ELISA. The optimal doses of anti-IgE are chosen for activation of PBB.

ROS = experiment: FcεRI-induced ROS (DCF) in MC; type: cell-based, human; settings: 10 μg/mL overnight; anti-FcεRI 1 μg/mL
Method: MC were pre-treated with or without fullerene derivatives as above, washed with Tyrodes buffer supplemented with BSA, and incubated with Fura-2 AM (2 μM) for 30 minutes at 37° C. Cells were washed, stimulated with anti-FcεRI, and calcium flux measured in real time on a Perkin Elmer LS55 Spectrofluorometer. For ROS production, cells were exposed to fullerene derivatives as above. After washing, cells were re-suspended in X-Vivo medium containing 5 μM dichlorodihydrofluorescein (DCF) at 37° C. for 30 minutes, washed, and activation-induced changes in mean fluorescence was measured with excitation at 502 nm and emission at 523 nm for 15 minutes (19). The data is presented as fluorescence intensity of the 523 nm emission over time. All experiments were performed in triplicate and degranulation was measured in parallel.
Cells were incubated with or without fullerene derivative (10 μg/mL) overnight. The next day cells were challenged with anti-FcεRI (3B4; 1 μg/mL) and calcium stores release was determined by the 340/380 nm ratio (FIGS. 11A and 11B) and ROS measured by DCF detection at 523 nm (FIGS. 11C and 11D). FIGS. 11A and 11C contain cells incubated with the TGA fullerene derivative, and FIGS. 11B and 11D contain cells incubated with the Inos fullerene derivative (10 μg/mL). […]

[2] = system: PI3-kinase phosphorylation; experiment: Western blotting of FcεRI-activated phospho-signaling in MC: PI3-kinase; type: cell-based, human; settings: 10 μg/mL overnight
Method: Cell lysate preparation and Western blotting were performed using a protocol optimized for extracting phospho-proteins from human MC. Tkaczyk, C., Metcalfe, D. D., and Gilfillan, A. M. J. Immunol. Methods 268, 239-243 (2002). Following activation, cells were lysed directly in boiling denaturing sample buffer consisting of tris-buffered saline with triton-X-100 (0.5%) and protease and phosphatase inhibitors. The cell suspension was then passed through a 20-gauge needle, boiled, and centrifuged to remove cell debris. Proteins were separated on 8% or 10% NuPage Tris-Bis gels using Licor running buffer. Western blotting was performed using Licor blocking buffer and IR800 and IR700 anti-rabbit F(ab)2 secondary Abs (1:1000). Primary Abs were from Cell Signaling Technologies or Santa Cruz unless otherwise noted. Band intensities were captured using the Odyssey Imaging System and bands quantified by measuring the number of pixels in each band using a box drawn for the same area of measurement for each separate blot. The band intensity was then normalized for loading by dividing the number of pixels in each band with the housekeeping band intensity (β-actin) performed on the same blot.
MC were pretreated with Inos or TGA (10 μg/mL) overnight at 37° C./6% CO2. The next day washed cells were activated with or without anti-FcεRI (1 μg/mL) for the indicated times and lysed using protocols described above. Two separate 10% Tris-Glycine gels were used for sodium dodecyl sulfate polyacrylamide gel electrophoresis (SDS-PAGE) and Western blotting performed with the indicated phosphorylation-specific (i.e., phosph-Lyn) antibodies. To ensure equal loading, an antiactin antibody was used in parallel. The intensity of each band was detected and quantified using an Odyssey imaging system. Band intensities are presented as a ratio compared to antiactin band intensities probed in the same lane and presented for each time point in the colored graphs on the right side. Results are representative of three separate experiments. […]

Fyn = Fyn protein level in MC; type: cell-based, human; settings: pre-incubated with TGA
Method: (§1) Mast cells (1×10^7 cell/condition; each condition performed in triplicate) were incubated with or without fullerene derivatives as above and incubated with or without anti-FcεRI antibodies for 10 minutes, supernatants were removed (to remove pre-formed mediators), and fresh warm medium containing anti-FcεRI antibodies (14 ml) added for 2 hours. Cells were centrifuged, the supernatant and the pellet immediately frozen and microarray performed using the Human Whole Genome OneArray™ gene expression profiling service (Phalanx Biotech Group). Separate samples, assayed in parallel were lysed and protein expression analyzed by Western blotting or flow cytometry (CD45) as described in Kepley, C. L., Pfeiffer, J., Wilson, B. W., Schwartz, L. B., and Oliver, J. M. J. Leukocyte Biol. 64, 474-483 (1998).
Downregulation observed at the gene level was verified at the protein level for several representative molecules using Western blotting or flow cytometry.

[3] = system: E74-like factor 2 (ELF-2); experiment: ELF-2 gene expression (microarray) in MC; type: cell-based, human; settings: gene level
Method: as §1
In order to examine the genes most affected by fullerene derivative preincubation the resulting values were sorted and filtered the following way. First, the mean (±SD) of the six values from each condition for each of the 30,970 genes was calculated. Second, only normalized value intensities of >100 were included so that follow up detection of protein levels would be more likely to be successful. […]

MC-induced anaphylaxis = experiment: MC-dependent anaphylaxis model: core body temperature; type: in vivo, mice (C57BL/6J); settings: 100 ng i.p. before DNP-BSA challenge

Substance: C70-tetraglycolic acid [TGA]
- Mean % Inhibition of Histamine Release ([1]; 5 μg/ml FD vs vehicle control, listed as C70-TGA): 15.8%
- FD + anti-IgE (mean ± SEM), histamine release ([1]; 5 μg/ml FD, 20 hours, anti-IgE): 39.4 ± 2.3
- maximal inhibition of anti-IgE-induced histamine release ([1]; 50 µg/mL dose, mean±SEM, n=2-3): 37.8±16.25%
- IC50 (degranulation) ([1]; PBB, maximum inhibition set to 100%): 9.9 µg/mL
- FcεRI-induced ROS (ROS): inhibited
- reduced PI3-kinase phosphorylation ([2]; 3 minutes): 15%
- reduced PI3-kinase phosphorylation ([2]; 5 minutes): 35%
- reduced PI3-kinase phosphorylation ([2]; 10 minutes): 50%
- Fyn protein levels (Fyn): no change
- ELF-2 downregulated [3]: 47%
- anaphylactic-induced drop in core body temperature (MC-induced anaphylaxis): significant reduction
